Source: US12037345B2, “Heterobicyclic compounds for inhibiting the activity of SHP2” (TAIHO PHARMACEUTICAL CO., LTD., priority 2018, dated 2024)

Tests used:
[1] = biological target: SHP2 (Homo sapiens (Human), UniProt Q06124); assay: SHP2 Biochemical Assay (DiFMUP conversion, pIRS1-activated); details: Table 19; head prints unit as "-M"
In short: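 Human SHP2 (10 pM) pre-incubated 30 min with compound and […] pIRS1 activating peptide, then 50 μM DiFMUP added; buffer 25 mM Bis-Tris propane pH 7.0, 150 mM NaCl, 5% DMSO. Fluorescence rate (ex 360/em 450 nm) over 30 min; IC50 by four-parameter fit, averaged across experiments.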

[2] = tested on: pERK (phospho-p44/42 ERK) in HCC827 cells; assay: Cellular pERK Inhibition Assay, Method A (In-Cell Western); type: cell-based; details: Homo sapiens, Table 19, head prints unit as "-M", read-out: pERK (IC50) Method A
In short: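 HCC827 cells in RPMI/10% FBS were treated with compounds in serum-free medium (0.2% DMSO final) at 37 °C for the indicated time, in quadruplicate. Fixed cells were immunostained for phospho-p44/42 ERK and read by infrared imaging. Blank-subtracted signal was expressed as % of DMSO control; IC50 from four-parameter logistic fit, averaged across experiments.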

Sequence of SHP2 (Q06124 whole entry): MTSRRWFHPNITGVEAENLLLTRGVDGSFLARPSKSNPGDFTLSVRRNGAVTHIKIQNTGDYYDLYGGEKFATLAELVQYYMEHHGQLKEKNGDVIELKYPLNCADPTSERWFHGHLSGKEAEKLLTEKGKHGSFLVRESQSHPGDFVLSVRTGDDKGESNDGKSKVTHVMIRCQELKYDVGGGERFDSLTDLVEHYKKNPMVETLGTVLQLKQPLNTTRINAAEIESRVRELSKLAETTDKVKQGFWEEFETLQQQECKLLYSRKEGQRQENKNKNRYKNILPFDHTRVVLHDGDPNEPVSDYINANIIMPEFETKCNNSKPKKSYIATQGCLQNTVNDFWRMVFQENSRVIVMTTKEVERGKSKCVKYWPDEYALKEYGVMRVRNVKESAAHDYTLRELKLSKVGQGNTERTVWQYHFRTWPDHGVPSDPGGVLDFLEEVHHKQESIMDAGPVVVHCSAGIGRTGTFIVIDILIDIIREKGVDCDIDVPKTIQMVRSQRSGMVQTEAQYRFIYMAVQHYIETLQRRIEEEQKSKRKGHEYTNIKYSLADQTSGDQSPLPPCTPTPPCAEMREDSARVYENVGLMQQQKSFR

SMILES	IC50 [1]	IC50 [2]
CCn1nc2ccc(-c3n[nH]c4nc(N5[C@H]6CC[C@@H]5[C@H](NC)C6)n(C)c(=O)c34)c(Cl)c2c1Cl [Example 128, 3-(3,4-dichloro-2-ethyl-2H-indazol-5-yl)-5-methyl-6-((1R,2R,4S)-2-(methylamino)-7-azabicyclo[2.2.1]heptan-7-yl)-1,5-dihydro-4H-pyrazolo[3,4-d]pyrimidin-4-one]	11 nM	160 nM
Cn1cc2c(Cl)c(-c3c[nH]c4nc(N5C[C@H]6C[C@@H](C5)[C@@H]6N)n(C)c(=O)c34)ccc2n1 [Example 33, 2-(exo-6-amino-3-azabicyclo[3.1.1]heptan-3-yl)-5-(4-chloro-2-methyl-2H-indazol-5-yl)-3-methyl-3,7-dihydro-4H-pyrrolo[2,3-d]pyrimidin-4-one]	47 nM	480 nM
CN[C@@H]1C[C@@H]2CC[C@H]1N2c1nc2[nH]cc(-c3ccc4nn(C)c(Cl)c4c3Cl)c2c(=O)n1C [Example 104, 5-(3,4-dichloro-2-methyl-2H-indazol-5-yl)-3-methyl-2-((1R,2R,4S)-2-(methylamino)-7-azabicyclo[2.2.1]heptan-7-yl)-3,7-dihydro-4H-pyrrolo[2,3-d]pyrimidin-4-one]	2.7 nM	84 nM
CN[C@@H]1C[C@@H]2CC[C@H]1N2c1nc2[nH]cc(-c3ccc4nc(C)sc4c3Cl)c2c(=O)n1C [Example 107, 5-(7-chloro-2-methylbenzo[d]thiazol-6-yl)-3-methyl-2-((1R,2R,4S)-2-(methylamino)-7-azabicyclo[2.2.1]heptan-7-yl)-3,7-dihydro-4H-pyrrolo[2,3-d]pyrimidin-4-one]	7 nM	270 nM
CN[C@@H]1C[C@@H]2CC[C@H]1N2c1nc2[nH]cc(-c3ccc4ncsc4c3Cl)c2c(=O)n1C [Example 105, 5-(7-chlorobenzo[d]thiazol-6-yl)-3-methyl-2-((1R,2R,4S)-2-(methylamino)-7-azabicyclo[2.2.1]heptan-7-yl)-3,7-dihydro-4H-pyrrolo[2,3-d]pyrimidin-4-one]	5 nM	160 nM
Cc1nc2ccc(-c3c[nH]c4nc(N5[C@@H]6CC[C@H]5C[C@@H](N)C6)n(C)c(=O)c34)c(Cl)c2s1 [Example 7, 2-(endo-3-amino-8-azabicyclo[3.2.1]octan-8-yl)-5-(7-chloro-2-methylbenzo[d]thiazol-6-yl)-3-methyl-3,7-dihydro-4H-pyrrolo[2,3-d]pyrimidin-4-one]	9 nM	170 nM
Cn1cc2c(Cl)c(-c3c[nH]c4nc(N5[C@@H]6CC[C@H]5C[C@H](N)C6)n(C)c(=O)c34)ccc2n1 [Example 10, 2-(exo-3-amino-8-azabicyclo[3.2.1]octan-8-yl)-5-(4-chloro-2-methyl-2H-indazol-5-yl)-3-methyl-3,7-dihydro-4H-pyrrolo[2,3-d]pyrimidin-4-one]	8.5 nM	170 nM
C[C@H]1CN(c2nc3[nH]cc(-c4ccc5nn(C)cc5c4Cl)c3c(=O)n2C)C[C@@H]1N [Example 57, 2-((3R,4S)-3-amino-4-methylpyrrolidin-1-yl)-5-(4-chloro-2-methyl-2H-indazol-5-yl)-3-methyl-3,7-dihydro-4H-pyrrolo[2,3-d]pyrimidin-4-one]	120 nM	2900 nM
Cn1cc2c(Cl)c(-c3c[nH]c4nc(N5C[C@H]6CC[C@@H]5[C@@H]6N)n(C)c(=O)c34)ccc2n1 (stereo in doubt) [Example 157, rel-2-((1R,4R,7R)-7-Amino-2-azabicyclo[2.2.1]heptan-2-yl)-5-(4-chloro-2-methyl-2H-indazol-5-yl)-3-methyl-3,7-dihydro-4H-pyrrolo[2,3-d]pyrimidin-4-one]	3.7 nM	22 nM
Cn1cc2c(Cl)c(-c3c[nH]c4nc(N5CC[C@](C)(N)C5)n(C)c(=O)c34)ccc2n1 [Example 54, (S)-2-(3-amino-3-methylpyrrolidin-1-yl)-5-(4-chloro-2-methyl-2H-indazol-5-yl)-3-methyl-3,7-dihydro-4H-pyrrolo[2,3-d]pyrimidin-4-one]	110 nM	1800 nM
